Data from patent US20100291151A1, “1-METHYLPYRAZOLE MODULATORS OF SUBSTANCE P, CALCITONIN GENE-RELATED PEPTIDE, ADRENERGIC RECEPTOR, AND/OR 5-HT RECEPTOR” (priority 2009, published 2010).

Legend:
Type in all cases: in vitro ADME
Supersomes CYP3A5 = target: T1, Supersomes CYP3A5 (Homo sapiens, UniProt P20815); test: Individual recombinant CYP isoform stability assay, CYP3A5; settings: 200 pmol per mL CYP3A5, 5 microgram per mL compound, 37° C., 0-60 minutes
T1 construct: purchased
Procedure: (§1) In Vitro Individual Recombinant CYP Isoform Stability Assays
(§2) Individual recombinant CYP isoform stability assays were conducted with Supersomes™ CYP2C19, CYP3A4, CYP3A5, CYP2D6, CYP2C8, and CYP2C9. The CYP isoforms were individually taken up in a NADPH-generating system (4.4 mM NADPH, 51.2 mM glucose 6-phosphate, 12 units per mL glucose 6-phosphate dehydrogenase and 6.6 mM magnesium chloride) in 2% sodium bicarbonate. The final assay concentrations were 100 pmol per mL for the following isoforms: CYP3A4, CYP2C19, and CYP2D6; other CYP isoforms final assay concentrations were 150 pmol per mL, including: CYP1A2 and CYP2C9; and yet other CYP isoforms final assay concentrations were 200 pmol per mL, including: CYP3A5 and CYP2C8. Test compounds were prepared as solutions in 20% acetonitrile-water and added to the assay mixture (final assay concentration 5 microgram per mL) and incubated at 37° C. Final concentration of acetonitrile in the assay should be <1%. Aliquots (50 μL) were taken out at times 0, 15, 30, 45, and 60 minutes, and diluted with ice cold acetonitrile (200 μL) to stop the reactions. Samples were centrifuged at 12,000 RPM for 10 minutes to precipitate proteins. Supernatants were transferred to microcentrifuge tubes and stored for LC/MS/MS analysis of the degradation half-life of the test compounds. […]

Supersomes CYP2C9 = target: T2, Supersomes CYP2C9 (Homo sapiens, UniProt P11712); test: Individual recombinant CYP isoform stability assay, CYP2C9; settings: 150 pmol per mL CYP2C9, 5 microgram per mL compound, 37° C., 0-60 minutes
T2 construct: purchased
Procedure: as §1, §2

Supersomes CYP3A4 = target: T3, Supersomes CYP3A4 (Homo sapiens, UniProt P08684); test: Individual recombinant CYP isoform stability assay, CYP3A4; settings: 100 pmol per mL CYP3A4, 5 microgram per mL compound, 37° C., 0-60 minutes
T3 construct: purchased
Procedure: as §1, §2

Supersomes CYP2C8 = target: T4, Supersomes CYP2C8 (Homo sapiens, UniProt P10632); test: Individual recombinant CYP isoform stability assay, CYP2C8; settings: 200 pmol per mL CYP2C8, 5 microgram per mL compound, 37° C., 0-60 minutes
T4 construct: purchased
T4 sequence (P10632 1-490): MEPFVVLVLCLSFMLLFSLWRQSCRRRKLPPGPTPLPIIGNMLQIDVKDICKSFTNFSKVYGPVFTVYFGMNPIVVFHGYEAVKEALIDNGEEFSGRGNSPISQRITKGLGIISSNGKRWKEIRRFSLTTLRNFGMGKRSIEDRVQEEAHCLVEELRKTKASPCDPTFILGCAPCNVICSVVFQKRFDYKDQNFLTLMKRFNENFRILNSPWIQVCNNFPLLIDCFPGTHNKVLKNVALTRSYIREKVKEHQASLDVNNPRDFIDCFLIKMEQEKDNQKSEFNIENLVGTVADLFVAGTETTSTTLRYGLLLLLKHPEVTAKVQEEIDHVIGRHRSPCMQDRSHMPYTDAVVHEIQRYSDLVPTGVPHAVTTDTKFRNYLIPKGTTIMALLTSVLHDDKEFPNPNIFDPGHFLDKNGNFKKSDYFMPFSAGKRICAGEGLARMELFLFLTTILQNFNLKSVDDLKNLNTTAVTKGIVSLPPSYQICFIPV
Procedure: as §1, §2

T3 sequence (P08684 whole entry, canonical isoform): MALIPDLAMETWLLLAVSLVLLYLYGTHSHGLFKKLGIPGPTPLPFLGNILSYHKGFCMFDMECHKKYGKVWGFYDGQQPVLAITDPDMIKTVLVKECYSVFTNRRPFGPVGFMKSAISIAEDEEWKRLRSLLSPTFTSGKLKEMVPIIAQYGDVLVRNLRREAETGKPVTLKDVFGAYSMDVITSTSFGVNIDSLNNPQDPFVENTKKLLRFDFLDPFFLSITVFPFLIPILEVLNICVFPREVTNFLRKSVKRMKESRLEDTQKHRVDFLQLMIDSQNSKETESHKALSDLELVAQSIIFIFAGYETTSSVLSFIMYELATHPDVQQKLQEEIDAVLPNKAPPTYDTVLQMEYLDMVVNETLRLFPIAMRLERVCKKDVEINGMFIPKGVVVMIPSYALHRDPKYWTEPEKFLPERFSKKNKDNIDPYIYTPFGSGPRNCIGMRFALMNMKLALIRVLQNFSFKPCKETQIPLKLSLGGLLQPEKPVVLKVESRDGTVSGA
T2 sequence (P11712 whole entry, canonical isoform): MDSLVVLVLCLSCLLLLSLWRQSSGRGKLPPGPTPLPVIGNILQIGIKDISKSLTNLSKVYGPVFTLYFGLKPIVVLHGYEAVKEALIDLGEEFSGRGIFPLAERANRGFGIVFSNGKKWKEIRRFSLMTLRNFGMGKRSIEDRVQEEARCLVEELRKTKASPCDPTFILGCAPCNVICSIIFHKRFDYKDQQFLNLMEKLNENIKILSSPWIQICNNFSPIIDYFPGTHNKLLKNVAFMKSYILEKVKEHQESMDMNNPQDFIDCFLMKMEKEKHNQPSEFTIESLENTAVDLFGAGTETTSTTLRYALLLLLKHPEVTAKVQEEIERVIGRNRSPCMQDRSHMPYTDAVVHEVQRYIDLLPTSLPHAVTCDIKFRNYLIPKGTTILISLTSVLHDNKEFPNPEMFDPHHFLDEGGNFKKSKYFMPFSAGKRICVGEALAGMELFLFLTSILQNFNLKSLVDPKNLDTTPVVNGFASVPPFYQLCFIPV
T1 sequence (P20815 whole entry, canonical isoform): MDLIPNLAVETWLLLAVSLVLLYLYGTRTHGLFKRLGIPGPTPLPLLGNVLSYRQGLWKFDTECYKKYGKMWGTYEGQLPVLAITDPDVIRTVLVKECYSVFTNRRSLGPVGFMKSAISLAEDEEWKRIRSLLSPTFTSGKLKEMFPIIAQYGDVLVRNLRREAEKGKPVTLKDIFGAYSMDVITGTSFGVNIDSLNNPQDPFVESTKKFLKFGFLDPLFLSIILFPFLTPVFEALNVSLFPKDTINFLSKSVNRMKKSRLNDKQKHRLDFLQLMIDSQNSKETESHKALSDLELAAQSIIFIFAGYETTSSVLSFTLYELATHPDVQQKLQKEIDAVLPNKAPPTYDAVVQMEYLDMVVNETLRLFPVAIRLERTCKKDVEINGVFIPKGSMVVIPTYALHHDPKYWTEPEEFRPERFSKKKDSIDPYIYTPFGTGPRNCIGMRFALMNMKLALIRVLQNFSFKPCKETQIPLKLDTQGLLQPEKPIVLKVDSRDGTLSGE

CN(C)CCOC(c1ccccc1)c1ccnn1C (stereo not shown) [Cizolirtine, N,N-dimethyl-2-[(1-methyl-1H-pyrazol-5-yl)phenylmethoxy]ethanamine]
not metabolized: metabolism by CYP3A5 (Supersomes CYP3A5) | metabolism by CYP2C9 (Supersomes CYP2C9) | metabolism by CYP3A4 (Supersomes CYP3A4) | metabolism by CYP2C8 (Supersomes CYP2C8)
